Consider two compounds from patent US8968794B2, “Antiseptic compositions and uses thereof” (Ramot at Tel-Aviv University Ltd., priority 2009, dated 2015).

Assay in all cases: Bactericidal activity, log10 CFU/ml after 0, 30 and 60 minutes
Common to all, as to format: cell-based

The test system of assay [1] is Escherichia coli ATCC 47076. The note with it: baseline 7.3. The procedure: A frozen stock of E. coli ATCC 47076 was grown overnight (1 ml in 9 ml LB medium) in a shaker incubator (200 rpm at 37° C.) until the OD600nm of the medium reached 1.6-1.8. […] The Bacterial suspension was adjusted to 10^8 CFU/ml by dilution with sterile medium. The Bacterial cells were then washed three times with 0.9% NaNO3. The NaNo3 washing cycles was performed by transferring 5 ml of the bacterial suspensions into 15 ml test tubes and subjecting the suspension to centrifugation at 4000 rpm at 4° C. for 5 minutes, followed by removal of the supernatant and re-suspension of the bacterial cell pellet in 5 ml of 0.9% NaNO3. The bactericidal activity of various concentration combinations of silver ions (from AgNO3) and menthol (solubilized by the addition of 0.5% TWEEN 20) was then assessed by adding 5 ml of the tested combinations to the bacterial cell pellets prepared as described hereinbelow and re-suspending the cell pellets by vortex. A test tube containing only 0.9% NaNO3 served as control. The bacterial suspensions thus obtained were transferred to sterile glass tubes to reduce potential cell adsorption to the walls, and kept covered at 37° C. throughout the testing period. Following 5 minutes of static incubation, 100 μl samples of the treated bacterial suspension were removed, and […] decimal dilutions in NaNO3 0.9% of the suspension were dropped onto LB agar plates. The level of bacterial proliferation was assessed by counting the number of colonies that grew on the plates and calculating the CFU/ml and log10 CFU/ml following 18 hours of incubation at 37° C. Higher log10 CFU/ml calculated for a bacterial suspension, incubated with a specific combination, is indicative of a lower level of bactericidal activity of that combination. The bacterial growth protocol was essentially as described above only that bacteria cell lines were grown in BHI growth medium (and following the growth of the cells in the medium, the bacterial suspension was adjusted to 10^7 CFU/ml by dilution with sterile medium). In addition, in these experiments, the static incubation of each bacterial suspension with the silver ion+menthol combination was for 0, 30 and 60 minutes. […] Cells incubated with NaNO3 0.9% (w/v) solution alone, without the addition of any antiseptic agent, served as control. […] S. Block, Editor. 2000, Lippincott Williams and Wilkins, pp 1305-1328. […] A baseline level was defined as the observed bacteria growth at time 0 when no antiseptic agent was added to the bacterial suspension.

Another assay relates to Klebsiella pneumoniae. Particulars: baseline 6.8. An excerpt:
(§1) Various bacterial cells lines were obtained from the clinical strains collection of the Laboratory of Molecular Epidemiology and Antimicrobial Resistance, Tel Aviv Sourasky Medical Center. The bactericidal activity of the tested antiseptic combinations was thus tested against Klebsiella pneumoniae, a Methicillin Resistant clinical strain of Staphylococcus aureus (MRSA), a clinical strain of Staphylococcus epidermis, a clinical strain of Extended Spectrum β-lactamase producing Escherichia coli, a clinical strain of Multi Drug Resistant Acinetobacter baumannii, and a clinical strain of Multi Drug Resistant Pseudomonas aeruginosa.
(§2) The bacterial growth protocol was essentially as described above only that bacteria cell lines were grown in BHI growth medium (and following the growth of the cells in the medium, the bacterial suspension was adjusted to 10^7 CFU/ml by dilution with sterile medium). In addition, in these experiments, the static incubation of each bacterial suspension with the silver ion+menthol combination was for 0, 30 and 60 minutes.
(§3) The effect of a combination of 0.01% silver ions and 0.05% menthol (solubilized by 0.5% (v/v) TWEEN 20) on the growth and viability of various types of bacteria was evaluated.
(§4) Cells incubated with NaNO3 0.9% (w/v) solution alone, without the addition of any antiseptic agent, served as control.
(§5) Table 2 presents the log10 CFU/ml calculated for different types of bacterial cell suspensions incubated for 0, 30 and 60 minutes with no antiseptic agent (control) or either 0.01% silver ions (0.01% AgNO3) alone, 0.05% menthol alone or a combination of 0.01% silver ions and 0.05% menthol. A baseline level was defined as the observed bacteria growth at time 0 when no antiseptic agent was added to the bacterial suspension.

In assay [2] the test system is Methicillin Resistant clinical strain of Staphylococcus aureus (MRSA). Particulars: baseline 6.1.
Text: as §1, §2, §3, §4, §5

For assay [3], the system named is clinical strain of Extended Spectrum β-lactamase producing Escherichia coli. The note with it: baseline 5.9.
Text: as §1, §2, §3, §4, §5

The test system of assay [4] is clinical strain of Multi Drug Resistant Acinetobacter baumannii. Particulars: baseline 6.4.
Text: as §1, §2, §3, §4, §5

The subject of assay [5] is clinical strain of Multi Drug Resistant Pseudomonas aeruginosa. The note with it: baseline 6.5.
Text: as §1, §2, §3, §4, §5

In assay [6] the test system is clinical strain of Staphylococcus epidermis. Particulars: baseline 5.4.
Text: as §1, §2, §3, §4, §5

In the case of `CC(C)[C@H]1CC[C@@H](C)C[C@@H]1O` [0.05% Menthol, 5-methyl-2-propan-2-yl-cyclohexan-1-ol], the “log10 CFU/ml of bacteria” value in assay [1] (treated for 0 minutes) came out at 5.3 log10 CFU/ml; in assay [1] (treated for 30 minutes) it was 0 log10 CFU/ml; in assay [1] (treated for 60 minutes), 0 log10 CFU/ml; in the assay with Klebsiella pneumoniae (treated for 0 minutes), 6.2 log10 CFU/ml; in the assay with Klebsiella pneumoniae (treated for 30 minutes), 4.9 log10 CFU/ml; in the assay on Klebsiella pneumoniae (treated for 60 minutes), 3.8 log10 CFU/ml. The “log10 CFU/ml of bacteria” value in assay [2] (treated for 0 minutes) was found to be 6.3 log10 CFU/ml; in assay [2] (treated for 30 minutes), 6.3 log10 CFU/ml; in assay [2] (treated for 60 minutes) it was 6.2 log10 CFU/ml; in assay [3] (treated for 0 minutes), 4.9 log10 CFU/ml; in assay [3] (treated for 30 minutes), 4.9 log10 CFU/ml; in assay [3] (treated for 60 minutes), 4.9 log10 CFU/ml. Besides, the “log10 CFU/ml of bacteria” value in assay [4] (treated for 0 minutes) is listed as 6.4 log10 CFU/ml; in assay [4] (treated for 30 minutes), 6.3 log10 CFU/ml; in assay [4] (treated for 60 minutes), 6.2 log10 CFU/ml; in assay [5] (treated for 0 minutes) it was 5.8 log10 CFU/ml; in assay [5] (treated for 30 minutes), 3.5 log10 CFU/ml; in assay [5] (treated for 60 minutes), 2.5 log10 CFU/ml. Further, the “log10 CFU/ml of bacteria” value in assay [6] (treated for 0 minutes) worked out at 5.4 log10 CFU/ml; in assay [6] (treated for 30 minutes), 5.4 log10 CFU/ml; in assay [6] (treated for 60 minutes) it was 5.3 log10 CFU/ml.

For `O=[N+]([O-])[O-].[Ag+]` [0.01% AgNO3, silver nitrate], the “log10 CFU/ml of bacteria” value in assay [1] (treated for 0 minutes) was 6.4 log10 CFU/ml; in assay [1] (treated for 30 minutes) it was 0 log10 CFU/ml; in assay [1] (treated for 60 minutes) it was 0 log10 CFU/ml; in the assay on Klebsiella pneumoniae (treated for 0 minutes) it was 0 log10 CFU/ml; with Klebsiella pneumoniae (treated for 30 minutes) it was 0 log10 CFU/ml; in the assay on Klebsiella pneumoniae (treated for 60 minutes) it was 0 log10 CFU/ml. Also, the “log10 CFU/ml of bacteria” value in assay [2] (treated for 0 minutes) is reported as 5.4 log10 CFU/ml; in assay [2] (treated for 30 minutes) it was 0 log10 CFU/ml; in assay [2] (treated for 60 minutes), 0 log10 CFU/ml; in assay [3] (treated for 0 minutes) it was 4.8 log10 CFU/ml; in assay [3] (treated for 30 minutes) it was 0 log10 CFU/ml; in assay [3] (treated for 60 minutes) it was 0 log10 CFU/ml. The “log10 CFU/ml of bacteria” value in assay [4] (treated for 0 minutes) is 6.3 log10 CFU/ml; in assay [4] (treated for 30 minutes), 0 log10 CFU/ml; in assay [4] (treated for 60 minutes), 0 log10 CFU/ml; in assay [5] (treated for 0 minutes), 5.1 log10 CFU/ml; in assay [5] (treated for 30 minutes) it was 0 log10 CFU/ml; in assay [5] (treated for 60 minutes) it was 0 log10 CFU/ml. Also, the “log10 CFU/ml of bacteria” value in assay [6] (treated for 0 minutes), in assay [6] (treated for 30 minutes) and in assay [6] (treated for 60 minutes) was 0 log10 CFU/ml in each case.
